Tests used:
Assay type in all cases: cell-based
[1] = target: T1, ATP-dependent translocase ABCB1 (Homo sapiens, UniProt P08183); test: Inhibition of human ABCB1 pump expressed in mouse L5178 cells assessed as fluorescence activity ratio at 20 uM for 10 mins by flow cytometry relative to control; conditions: l5178, 10 min
[2] = target: T1, ATP-dependent translocase ABCB1; test: Inhibition of human ABCB1 expressed in mouse L5178 cells assessed as 50% inhibition of cell proliferation at compound-doxorubicin ratio of 40.8:1 after 48 hrs by MTT assay; conditions: l5178, 48 h
[3] = target: T1, ATP-dependent translocase ABCB1; test: Inhibition of human ABCB1 expressed in mouse L5178 cells assessed as 75% inhibition of cell proliferation at compound-doxorubicin ratio of 40.8:1 after 48 hrs by MTT assay; conditions: l5178, 48 h
[4] = target: T1, ATP-dependent translocase ABCB1; test: Inhibition of human ABCB1 expressed in mouse L5178 cells assessed as 95% inhibition of cell proliferation at compound-doxorubicin ratio of 40.8:1 after 48 hrs by MTT assay; conditions: l5178, 48 h
[5] = target: T1, ATP-dependent translocase ABCB1; test: Inhibition of human ABCB1 expressed in mouse L5178 cells assessed as 50% inhibition of cell proliferation at compound-doxorubicin ratio of 20.4:1 after 48 hrs by MTT assay; conditions: l5178, 48 h
[6] = target: T1, ATP-dependent translocase ABCB1; test: Inhibition of human ABCB1 expressed in mouse L5178 cells assessed as 75% inhibition of cell proliferation at compound-doxorubicin ratio of 20.4:1 after 48 hrs by MTT assay; conditions: l5178, 48 h
[7] = target: T1, ATP-dependent translocase ABCB1; test: Inhibition of human ABCB1 expressed in mouse L5178 cells assessed as 95% inhibition of cell proliferation at compound-doxorubicin ratio of 20.4:1 after 48 hrs by MTT assay; conditions: l5178, 48 h

T1 sequence (P08183 whole entry): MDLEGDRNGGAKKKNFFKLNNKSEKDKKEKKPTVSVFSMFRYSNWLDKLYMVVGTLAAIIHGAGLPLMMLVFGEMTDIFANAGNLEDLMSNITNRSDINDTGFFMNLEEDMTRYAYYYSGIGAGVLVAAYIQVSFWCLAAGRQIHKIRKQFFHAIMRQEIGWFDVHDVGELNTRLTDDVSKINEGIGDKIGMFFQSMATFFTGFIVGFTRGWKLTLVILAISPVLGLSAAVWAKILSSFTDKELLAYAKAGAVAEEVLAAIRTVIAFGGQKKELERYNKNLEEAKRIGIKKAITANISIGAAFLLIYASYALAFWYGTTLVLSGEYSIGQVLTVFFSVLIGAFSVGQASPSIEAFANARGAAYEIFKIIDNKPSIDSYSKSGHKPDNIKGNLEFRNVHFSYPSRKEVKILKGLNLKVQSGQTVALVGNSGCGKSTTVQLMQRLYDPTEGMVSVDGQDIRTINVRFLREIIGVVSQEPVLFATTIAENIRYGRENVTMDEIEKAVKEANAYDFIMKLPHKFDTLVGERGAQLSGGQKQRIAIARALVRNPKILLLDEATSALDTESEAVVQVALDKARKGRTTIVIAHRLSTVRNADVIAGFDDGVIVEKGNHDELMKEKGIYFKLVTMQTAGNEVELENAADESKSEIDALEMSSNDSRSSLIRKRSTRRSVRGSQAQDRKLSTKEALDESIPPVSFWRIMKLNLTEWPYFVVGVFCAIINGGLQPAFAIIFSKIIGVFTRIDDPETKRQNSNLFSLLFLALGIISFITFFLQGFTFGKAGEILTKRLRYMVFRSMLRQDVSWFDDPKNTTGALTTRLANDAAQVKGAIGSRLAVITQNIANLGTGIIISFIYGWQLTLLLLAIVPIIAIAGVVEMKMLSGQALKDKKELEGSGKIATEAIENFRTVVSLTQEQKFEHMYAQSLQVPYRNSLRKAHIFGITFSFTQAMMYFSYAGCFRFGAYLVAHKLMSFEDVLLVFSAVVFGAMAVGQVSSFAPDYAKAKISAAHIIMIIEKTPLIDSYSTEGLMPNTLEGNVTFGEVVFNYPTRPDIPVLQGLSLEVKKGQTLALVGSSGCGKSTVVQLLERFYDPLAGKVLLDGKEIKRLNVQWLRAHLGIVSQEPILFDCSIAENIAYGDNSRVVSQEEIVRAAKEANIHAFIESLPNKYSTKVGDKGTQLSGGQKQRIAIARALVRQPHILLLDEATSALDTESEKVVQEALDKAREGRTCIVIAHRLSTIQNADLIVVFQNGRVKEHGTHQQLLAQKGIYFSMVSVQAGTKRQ

SMILES | Ratio [1] | fractional inhibitory concentration index (FICI) [2] | fractional inhibitory concentration index (FICI) [3] | fractional inhibitory concentration index (FICI) [4] | fractional inhibitory concentration index (FICI) [5] | fractional inhibitory concentration index (FICI) [6] | fractional inhibitory concentration index (FICI) [7]
CC(=O)O[C@H]1C[C@@]2(C)[C@@H](C[C@H]1OC(C)=O)C(=O)C=C1[C@@H]2CC[C@]2(C)[C@@H]([C@@](C)(O)[C@@H](CCC(C)(C)O)OC(C)=O)CC[C@@]12O | 1.25 | 1.26 | 0.91 | 0.7 |  |  | 
CC(C)[C@@H](O)C[C@@H](O)[C@](C)(O)[C@H]1CC[C@@]2(O)C3=CC(=O)[C@@H]4C[C@@H](O)[C@@H](O)C[C@]4(C)[C@H]3CC[C@]12C [PTEROSTERONE] | 0.56 | 1.32 | 0.84 | 0.54 |  |  | 
C[C@@H]1C(=O)O[C@H](C)[C@H]1C[C@@H](O)[C@](C)(O)[C@H]1CC[C@@]2(O)C3=CC(=O)[C@@H]4C[C@@H](O)[C@@H](O)C[C@]4(C)[C@H]3CC[C@]12C [CYASTERONE] | 0.75 | 1.54 | 0.85 | 0.47 |  |  | 
CC(=O)O[C@H]1C[C@]2(C)[C@H]3CC[C@]4(C)[C@@H]([C@@](C)(O)[C@@H](CCC(C)(C)O)OC(C)=O)CC[C@@]4(O)C3=CC(=O)[C@]2(O)C[C@H]1O | 0.84 | 1.22 | 0.86 | 0.6 |  |  | 
CC(C)(O)CCC[C@](C)(O)[C@H]1CC[C@@]2(O)C3=CC(=O)[C@@H]4C[C@@H](O)[C@@H](O)[C@@H](O)[C@]4(C)[C@H]3CC[C@]12C | 0.66 | 1.37 | 0.9 | 0.6 |  |  | 
CC(C)(O)CC[C@@H](O)[C@](C)(O)[C@H]1CC[C@@]2(O)C3=CC(=O)[C@@H]4C[C@@H](O)CC[C@]4(C)[C@H]3CC[C@]12C | 0.55 | 1.05 | 1.48 | 2.26 |  |  | 
CC(C)(O)CC[C@H]1OC(C)(C)O[C@]1(C)[C@H]1CC[C@@]2(O)C3=CC(=O)[C@@H]4C[C@H]5OC(C)(C)O[C@H]5[C@@H](O)[C@]4(C)[C@H]3CC[C@]12C | 2.53 |  |  |  | 1.23 | 0.49 | 0.24
CC(C)(O)CC[C@@H](O)[C@](C)(O)[C@H]1CC[C@@]2(O)C3=CC(=O)[C@]4(O)C[C@@H](O)[C@@H](O)C[C@]4(C)[C@H]3CC[C@]12C [POLYPODINE B] | 0.77 |  |  |  | 1.11 | 0.8 | 0.58
CC(=O)O[C@H]1CC[C@@]2(C)[C@@H](C1)C(=O)C=C1[C@@H]2CC[C@]2(C)[C@@H]([C@H](C)[C@@H](CCC(C)(C)OC(C)=O)OC(C)=O)CC[C@@]12O | 25.07 |  |  |  | 0.41 | 0.23 | 0.14

— ChEMBL document CHEMBL2086273, “Significant activity of ecdysteroids on the resistance to doxorubicin in mammalian cancer cells expressing the human ABCB1 transporter” (J Med Chem, 2012)
